According to patent US8445509B2, “Fused heterocyclic derivatives and use thereof” (Takeda Pharmaceutical Company Limited, priority 2008, dated 2013):

Key:
[1] = molecular target: T1, c-Met intracellular domain protein (Homo sapiens, UniProt P08581); assay: Hepatocyte growth factor receptor (c-Met) kinase inhibitory activity (AlphaScreen); format: biochemical; settings: for inhibition at 1 µM: 1 μM test compound, read-out: inhibitory rate (%) at 1 μM
T1 construct: 2.5 ng/ml of c-Met intracellular domain protein (Millipore); purchased Millipore
T1 sequence (P08581 956-1390 limits assumed): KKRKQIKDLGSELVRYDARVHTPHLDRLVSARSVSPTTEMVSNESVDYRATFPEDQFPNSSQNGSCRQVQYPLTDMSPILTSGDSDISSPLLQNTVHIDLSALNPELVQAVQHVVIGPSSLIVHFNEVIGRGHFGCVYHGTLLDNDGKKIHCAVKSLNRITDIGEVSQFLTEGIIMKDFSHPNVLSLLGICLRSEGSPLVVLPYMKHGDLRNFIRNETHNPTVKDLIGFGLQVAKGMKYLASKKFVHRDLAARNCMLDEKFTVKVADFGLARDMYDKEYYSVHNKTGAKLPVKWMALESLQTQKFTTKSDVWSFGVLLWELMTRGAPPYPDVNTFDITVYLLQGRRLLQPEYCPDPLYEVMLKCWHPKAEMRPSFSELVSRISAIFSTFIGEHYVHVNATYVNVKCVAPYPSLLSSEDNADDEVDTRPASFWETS
Method: A test compound dissolved in dimethyl sulfoxide (DMSO) was diluted with a buffer (50 mM Tris-HCl (pH 7.5), 5 mM MgCl2, 5 mM MnCl2, 2 mM dithiothreitol, 0.01% Tween-20). To this compound solution (5 μL) was added a buffer (10 μL) containing 2.5 ng/ml of c-Met intracellular domain protein (Millipore) and 250 ng/mL of biotin labeled polypeptide biotinyl-poly-Glu:Tyr (4:1) (CIS bio International). […] The reaction solution was allowed to stand at 25° C. for 16 hrs, and the wells were counted using a plate reader (Fusion™ (PerkinElmer)). The kinase inhibitory rate (%) of the test compound was calculated by the following formula: Inhibitory rate (%)=(1−(count of test compound−blank)÷(control−blank))×100
The count of the solution reacted without addition of the compound was used as a “control”, and the count of the solution without the compound and ATP was used as a “blank”.

[2] = system: Human gastric cancer cell line MKN-45; assay: Human gastric cancer cell line MKN-45 growth inhibitory test; format: cell-based; settings: MKN-45, 72 h, culture for 3 days; for inhibition at 1 µM: 1 μM test substance, read-out: inhibitory rate (%) at 1 μM; for IC50: read-out: IC50 value
Outline: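 MKN-45 cells plated at 3000/well in RPMI1640 with 0.3% FBS, then exposed to test substance for 3 days at 37 °C. Viability read by CCK-8 absorbance at 450 nm; IC50 from variable-slope sigmoidal fit, with DMSO as 100% growth and 10 µM reference c-Met inhibitor as 0% growth.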

[3] = molecular target: T2, FLT3 intracellular domain protein (Homo sapiens, UniProt P36888); assay: Fms Like Tyrosine Kinase 3 (FLT3) kinase inhibitory activity (AlphaScreen); format: biochemical; settings: for inhibition at 1 µM: 1 μM test compound, read-out: inhibitory rate (%) at 1 μM
T2 construct: 7.5 ng/ml of FLT3 intracellular domain protein (Millipore); purchased Millipore
T2 sequence (P36888 564-993 limits assumed): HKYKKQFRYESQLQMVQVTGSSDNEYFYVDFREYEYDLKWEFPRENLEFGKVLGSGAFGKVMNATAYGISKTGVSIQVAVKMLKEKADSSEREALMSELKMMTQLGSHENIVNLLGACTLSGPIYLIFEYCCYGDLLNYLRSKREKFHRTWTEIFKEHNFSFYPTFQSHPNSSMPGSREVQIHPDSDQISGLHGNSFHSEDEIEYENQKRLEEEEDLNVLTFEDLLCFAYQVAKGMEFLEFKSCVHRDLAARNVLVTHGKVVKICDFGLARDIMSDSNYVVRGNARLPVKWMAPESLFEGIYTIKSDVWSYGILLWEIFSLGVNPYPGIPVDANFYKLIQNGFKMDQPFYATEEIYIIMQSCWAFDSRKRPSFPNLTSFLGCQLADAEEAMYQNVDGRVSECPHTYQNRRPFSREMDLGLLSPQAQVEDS
Outline: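 FLT3 intracellular domain (7.5 ng/ml) and biotin-poly-Glu:Tyr (250 ng/mL), each as added, were preincubated 5 min with compound in Tris pH 7.5 with Mg²⁺, Mn²⁺, DTT and Tween-20. ATP was added (5 μM) for 10 min at 25 °C, then EDTA stop with streptavidin donor/anti-phosphotyrosine acceptor beads for 16 h. % inhibition was calculated against the no-compound control and the no-compound/no-ATP blank.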

[4] = system: Human blood cell cancer cell line MV-4-11; assay: Human blood cell cancer cell line MV-4-11 growth inhibitory test; format: cell-based; settings: MV4-11, 72 h, culture for 3 days; for inhibition at 1 µM: 1 μM test substance, read-out: inhibitory rate (%) at 1 μM

| Compound | IC50 [1] | inhibition at 1 µM [1] | inhibition at 1 µM [2] | IC50 [2] | IC50 [3] | inhibition at 1 µM [4] | IC50 [4] | inhibition at 1 µM [3] |
| --- | --- | --- | --- | --- | --- | --- | --- | --- |
| O=C(Nc1cn2cc(Oc3ccc(NC(=O)C4(C(=O)Nc5ccccc5)CC4)cc3F)ccc2n1)C1CC1 [Example 14, N-[4-({2-[(cyclopropylcarbonyl)amino]imidazo[1,2-a]pyridin-6-yl}oxy)-3-fluorophenyl]-N′-phenylcyclopropane-1,1-dicarboxamide] | ≤ 1000 nM | ≥ 80% | ≥ 80% | ≤ 1000 nM | ≤ 1000 nM | ≥ 90% | ≤ 1000 nM |  |
| Cc1ccc(C(=O)Nc2ccc(Oc3ccc4nc(NC(=O)C5CC5)cn4c3)c(F)c2)[n+]([O-])c1-c1cccc(F)c1 [Example 93, N-[4-({2-[(cyclopropylcarbonyl)amino]imidazo[1,2-a]pyridin-6-yl}oxy)-3-fluorophenyl]-6-(3-fluorophenyl)-5-methylpyridine-2-carboxamide 1-oxide] | ≤ 1000 nM | ≥ 80% | ≥ 80% | ≤ 1000 nM | ≤ 1000 nM | ≥ 90% | ≤ 1000 nM |  |
| Cc1ccc(C(=O)Nc2ccc(Oc3ccc4nc(NC(=O)C5CC5)cn4c3)cn2)c(=O)n1-c1ccc(F)cc1 [Example 60, N-[5-({2-[(cyclopropylcarbonyl)amino]imidazo[1,2-a]pyridin-6-yl}oxy)pyridin-2-yl]-1-(4-fluorophenyl)-6-methyl-2-oxo-1,2-dihydropyridine-3-carboxamide] | ≤ 1000 nM | ≥ 80% | ≥ 80% | ≤ 1000 nM | ≤ 1000 nM | ≥ 90% | ≤ 1000 nM |  |
| Cc1ccc(C(=O)Nc2ccc(Oc3ccc4nc(NC(=O)C5CC5)cn4c3)cc2F)[n+]([O-])c1-c1ccc(F)cc1 [Example 84, N-[4-({2-[(cyclopropylcarbonyl)amino]imidazo[1,2-a]pyridin-6-yl}oxy)-2-fluorophenyl]-6-(4-fluorophenyl)-5-methylpyridine-2-carboxamide 1-oxide] | ≤ 1000 nM | ≥ 80% | ≥ 80% | ≤ 1000 nM | ≤ 1000 nM | ≥ 90% | ≤ 1000 nM |  |
| CC1=C(c2ccc(F)cc2)C(=O)N(C(=O)Nc2ccc(Oc3ccc4nc(NC(=O)C5CC5)cn4c3)c(F)c2)CC1 [Example 81, N-[4-({2-[(cyclopropylcarbonyl)amino]imidazo[1,2-a]pyridin-6-yl}oxy)-3-fluorophenyl]-5-(4-fluorophenyl)-4-methyl-6-oxo-3,6-dihydropyridine-1(2H)-carboxamide] | ≤ 1000 nM | ≥ 80% | ≥ 80% | ≤ 1000 nM | ≤ 1000 nM | ≥ 90% | ≤ 1000 nM |  |
| Cc1ccc(C(=O)Nc2ccc(Oc3ccc4nc(NC(=O)C5CC5)cn4c3)cc2)c(=O)n1-c1ccc(F)cc1 [Example 28, N-[4-({2-[(cyclopropylcarbonyl)amino]imidazo[1,2-a]pyridin-6-yl}oxy)phenyl]-1-(4-fluorophenyl)-6-methyl-2-oxo-1,2-dihydropyridine-3-carboxamide] | ≤ 1000 nM | ≥ 80% | ≥ 80% | ≤ 1000 nM | ≤ 1000 nM | ≥ 90% | ≤ 1000 nM | ≥ 50% |
| Cc1cc(C(=O)Nc2ccc(Oc3ccc4nc(NC(=O)C5CC5)cn4c3)c(F)c2)c(=O)n(-c2ccc(F)cc2)c1 [Example 66, N-[4-({2-[(cyclopropylcarbonyl)amino]imidazo[1,2-a]pyridin-6-yl}oxy)-3-fluorophenyl]-1-(4-fluorophenyl)-5-methyl-2-oxo-1,2-dihydropyridine-3-carboxamide] | ≤ 1000 nM | ≥ 80% | ≥ 80% | ≤ 1000 nM | ≤ 1000 nM | ≥ 90% | ≤ 1000 nM |  |
| Cc1ccc(C(=O)Nc2ccc(Oc3ccc4nc(NC(=O)C5CC5)cn4c3)c(Cl)c2)c(=O)n1-c1ccc(F)cc1 [Example 57, N-[3-chloro-4-({2-[(cyclopropylcarbonyl)amino]imidazo[1,2-a]pyridin-6-yl}oxy)phenyl]-1-(4-fluorophenyl)-6-methyl-2-oxo-1,2-dihydropyridine-3-carboxamide] | ≤ 1000 nM | ≥ 80% | ≥ 80% | ≤ 1000 nM | ≤ 1000 nM | ≥ 90% | ≤ 1000 nM |  |
| Cc1ccc(C(=O)Nc2ccc(Oc3ccc4nc(NC(=O)C5CC5)cn4c3)c(F)c2)c(=O)n1-c1ccc(F)c(F)c1 [Example 45, N-[4-({2-[(cyclopropylcarbonyl)amino]imidazo[1,2-a]pyridin-6-yl}oxy)-3-fluorophenyl]-1-(3,4-difluorophenyl)-6-methyl-2-oxo-1,2-dihydropyridine-3-carboxamide] | ≤ 1000 nM | ≥ 80% | ≥ 80% | ≤ 1000 nM | ≤ 1000 nM | ≥ 90% | ≤ 1000 nM |  |
| Cc1c(C(=O)Nc2ccc(Oc3ccc4nc(NC(=O)C5CC5)cn4c3)c(F)c2)c(=O)n(-c2ccccc2)n1C [Example 46, N-[4-({2-[(cyclopropylcarbonyl)amino]imidazo[1,2-a]pyridin-6-yl}oxy)-3-fluorophenyl]-1,5-dimethyl-3-oxo-2-phenyl-2,3-dihydro-1H-pyrazole-4-carboxamide] | ≤ 1000 nM | ≥ 80% | ≥ 80% | ≤ 1000 nM | ≤ 1000 nM | ≥ 90% | ≤ 1000 nM |  |
| O=C(Nc1nc2ccc(Oc3ccc(NC(=O)C4(C(=O)Nc5ccccc5)CC4)cc3F)cc2s1)C1CC1 [Example 18, N-[4-({2-[(cyclopropylcarbonyl)amino]-1,3-benzothiazol-6-yl}oxy)-3-fluorophenyl]-N′-phenylcyclopropane-1,1-dicarboxamide] | ≤ 1000 nM | ≥ 80% | ≥ 80% | ≤ 1000 nM | ≤ 1000 nM | ≥ 90% | ≤ 1000 nM | ≥ 50% |
| O=C(Nc1ccc(Oc2ccc3nc(NC(=O)C4CC4)cn3c2)c(F)c1)c1cccn(-c2ccc(F)cc2)c1=O [Example 10, N-[4-({2-[(cyclopropylcarbonyl)amino]imidazo[1,2-a]pyridin-6-yl}oxy)-3-fluorophenyl]-1-(4-fluorophenyl)-2-oxo-1,2-dihydropyridine-3-carboxamide] | ≤ 1000 nM | ≥ 80% | ≥ 80% | ≤ 1000 nM | ≤ 1000 nM | ≥ 90% | ≤ 1000 nM | ≥ 50% |
| O=C(Nc1cn2cc(Oc3ccc(NC(=O)C4(C(=O)Nc5ccc(F)cc5)CC4)cc3F)ccc2n1)C1CC1 [Example 11, N-[4-({2-[(cyclopropylcarbonyl)amino]imidazo[1,2-a]pyridin-6-yl}oxy)-3-fluorophenyl]-N′-(4-fluorophenyl)cyclopropane-1,1-dicarboxamide] | ≤ 1000 nM | ≥ 80% | ≥ 80% | ≤ 1000 nM | ≤ 1000 nM | ≥ 90% | ≤ 1000 nM |  |
| Cc1cc(C(=O)Nc2ccc(Oc3ccc4nc(NC(=O)C5CC5)cn4c3)c(F)c2)c(=O)n(-c2ccc(F)cc2)c1C [Example 70, N-[4-({2-[(cyclopropylcarbonyl)amino]imidazo[1,2-a]pyridin-6-yl}oxy)-3-fluorophenyl]-1-(4-fluorophenyl)-5,6-dimethyl-2-oxo-1,2-dihydropyridine-3-carboxamide] | ≤ 1000 nM | ≥ 80% | ≥ 80% | ≤ 1000 nM | ≤ 1000 nM | ≥ 90% | ≤ 1000 nM |  |
